The values below are quoted from earlier work in patent US20150246061A1, “VITAMIN D ANALOGUES FOR THE TREATMENT OF A NEUROLOGICAL DISORDER” (CELUS PHARMACEUTICALS, INC., priority 2012, published 2015).

The conditions of the series: adult humans, longer treatment periods.

Some results are limits rather than exact numbers.

For `C=C1/C(=C\C=C2/CCC[C@]3(C)C([C@@H](C)C/C=C/C(O)(CC)CC)=CC[C@@H]23)C[C@@H](O)C[C@@H]1F` [Elocalcitol, elocalcitol], the “daily dose up to which elocalcitol has been shown to be safe” value is at most 150 µg.
